# Experimental data as given in ChEMBL document CHEMBL5608141, “Identification of compartment-specific drug sensitivities in CRC organoid-stroma co-cultures” (2024).
# Tests used:
# Type in all cases: functional, Homo sapiens
# Parameters in all cases: dose or concentration left out as unconfirmed
# Colon cancer organoid [1] = test: Identification of compartment-specific drug sensitivities in O06 CRC organoid-stroma F06 CAF co-cultures. Organoid is transduced with Lucferase2-P2A-EGFP lentivirus, fibroblast with Renilla-dsRed lentivirus. Dual-Glo Luciferase assay is used to report viability data.
# Colon cancer organoid [2] = test: Identification of compartment-specific drug sensitivities in O20 CRC organoid-stroma F20 CAF co-cultures. Organoid is transduced with Lucferase2-P2A-EGFP lentivirus, fibroblast with Renilla-dsRed lentivirus. Dual-Glo Luciferase assay is used to report viability data.
# Colon cancer organoid [3] = test: Identification of compartment-specific drug sensitivities in O14 CRC organoid-stroma F14 CAF co-cultures. Organoid is transduced with Lucferase2-P2A-EGFP lentivirus, fibroblast with Renilla-dsRed lentivirus. Dual-Glo Luciferase assay is used to report viability data.
# [4] = Transduced with Lucferase2-P2A-EGFP lentivirus
# [5] = Transduced with Renilla-dsRed lentivirus
smiles,measurement,setting,value
O=C(NCc1ncc(C(F)(F)F)cc1Cl)c1ccc2c(c1)C1(CCS(=O)(=O)CC1)[C@@H](C1CC1)N2S(=O)(=O)c1ccc(F)cc1 [BAY-786],Cell Viability,Colon cancer organoid [1]; [4],81.2723%
same,Cell Viability,Colon cancer organoid [1]; [5],52.1511%
same,Cell Viability,Colon cancer organoid [2]; [4],102.274%
same,Cell Viability,Colon cancer organoid [2]; [5],106.984%
same,Cell Viability,Colon cancer organoid [3]; [4],85.8201%
same,Cell Viability,Colon cancer organoid [3]; [5],92.0831%
Cc1c(NC(=O)c2cc(C(N)=O)nc3cc(F)ccc23)c(C(F)(F)F)nn1Cc1ccc(C#N)cc1 [BAY-876],Cell Viability,Colon cancer organoid [1]; [4],11.8045%
same,Cell Viability,Colon cancer organoid [1]; [5],337.56%
same,Cell Viability,Colon cancer organoid [2]; [4],13.842%
same,Cell Viability,Colon cancer organoid [2]; [5],190.785%
same,Cell Viability,Colon cancer organoid [3]; [4],20.1463%
same,Cell Viability,Colon cancer organoid [3]; [5],59.1997%
CN1CCN(c2cnc3c(C4CCN(C(=O)c5ccc(OC(F)(F)F)cc5N)CC4)ncnc3c2)CC1 [BAY-885],Cell Viability,Colon cancer organoid [1]; [4],128.922%
same,Cell Viability,Colon cancer organoid [1]; [5],132.533%
same,Cell Viability,Colon cancer organoid [2]; [4],78.4575%
same,Cell Viability,Colon cancer organoid [2]; [5],141.163%
same,Cell Viability,Colon cancer organoid [3]; [4],91.6174%
same,Cell Viability,Colon cancer organoid [3]; [5],96.8328%
O=C(Nc1cnc(Oc2ccc(F)cc2)nc1)N1CCc2ncccc2[C@@H]1c1ccc(F)cc1 [BAY-899],Cell Viability,Colon cancer organoid [1]; [4],92.2798%
same,Cell Viability,Colon cancer organoid [1]; [5],100.101%
same,Cell Viability,Colon cancer organoid [2]; [4],151.912%
same,Cell Viability,Colon cancer organoid [2]; [5],104.61%
same,Cell Viability,Colon cancer organoid [3]; [4],105.834%
same,Cell Viability,Colon cancer organoid [3]; [5],99.8567%
CC1=C(C#N)C(c2ccc3c(c2)c(NC(=O)c2ccccc2C)nn3C)C(C#N)=C(C)N1 [BAY-974],Cell Viability,Colon cancer organoid [1]; [4],90.4588%
same,Cell Viability,Colon cancer organoid [1]; [5],87.5124%
same,Cell Viability,Colon cancer organoid [2]; [4],105.235%
same,Cell Viability,Colon cancer organoid [2]; [5],128.576%
same,Cell Viability,Colon cancer organoid [3]; [4],92.3005%
same,Cell Viability,Colon cancer organoid [3]; [5],117.089%
C[C@H](c1ccnc(Nc2nc3ccc(-c4cc(N(C)C)ncn4)cc3[nH]2)c1)N1CCN(C(=O)CC(F)(F)F)CC1 [BAY-985],Cell Viability,Colon cancer organoid [1]; [4],137.072%
same,Cell Viability,Colon cancer organoid [1]; [5],142.411%
same,Cell Viability,Colon cancer organoid [2]; [4],129.711%
same,Cell Viability,Colon cancer organoid [2]; [5],125.86%
same,Cell Viability,Colon cancer organoid [3]; [4],130.529%
same,Cell Viability,Colon cancer organoid [3]; [5],136.274%
NS(=O)(=O)c1cc(NC(=O)Cc2ccccc2)ccc1Oc1cccc(Cl)c1 [BAY-1797],Cell Viability,Colon cancer organoid [1]; [4],89.5842%
same,Cell Viability,Colon cancer organoid [1]; [5],298.319%
same,Cell Viability,Colon cancer organoid [2]; [4],89.0927%
same,Cell Viability,Colon cancer organoid [2]; [5],86.996%
same,Cell Viability,Colon cancer organoid [3]; [4],92.6745%
same,Cell Viability,Colon cancer organoid [3]; [5],115.956%
CCc1ccccc1C(=O)Nc1n[nH]c2c(C)c(F)c(C3C(C#N)=C(C)N(C)C(C)=C3C#N)cc12 [BAY-3827],Cell Viability,Colon cancer organoid [1]; [4],43.7855%
same,Cell Viability,Colon cancer organoid [1]; [5],108.902%
same,Cell Viability,Colon cancer organoid [2]; [4],74.4041%
same,Cell Viability,Colon cancer organoid [2]; [5],157.673%
same,Cell Viability,Colon cancer organoid [3]; [4],97.9341%
same,Cell Viability,Colon cancer organoid [3]; [5],94.3175%
Cn1cc(Cl)c2c(Oc3c(F)cc(Nc4cc(Cl)nc(N)n4)cc3F)ccnc21 [BAY-4900],Cell Viability,Colon cancer organoid [1]; [4],121.536%
same,Cell Viability,Colon cancer organoid [1]; [5],149.241%
same,Cell Viability,Colon cancer organoid [2]; [4],91.1614%
same,Cell Viability,Colon cancer organoid [2]; [5],109.2%
same,Cell Viability,Colon cancer organoid [3]; [4],86.5863%
same,Cell Viability,Colon cancer organoid [3]; [5],82.0192%
Cc1c(N2CCCC2)nc2ccc(Br)cc2c1C(=O)NC[C@H](CCC(=O)O)c1ccccc1Cl [BAY-6672],Cell Viability,Colon cancer organoid [1]; [4],132.373%
same,Cell Viability,Colon cancer organoid [1]; [5],142.298%
same,Cell Viability,Colon cancer organoid [2]; [4],83.1045%
same,Cell Viability,Colon cancer organoid [2]; [5],119.315%
same,Cell Viability,Colon cancer organoid [3]; [4],108.299%
same,Cell Viability,Colon cancer organoid [3]; [5],92.2123%
COc1ccc(Oc2cc(NCCC(F)(F)F)c3ncc(-c4ccc(C(=O)NC5CC5)c(C)c4)n3n2)c(F)c1F [BAY-1217389],Cell Viability,Colon cancer organoid [1]; [4],5.893%
same,Cell Viability,Colon cancer organoid [1]; [5],100.303%
same,Cell Viability,Colon cancer organoid [2]; [4],10.0806%
same,Cell Viability,Colon cancer organoid [2]; [5],184.891%
same,Cell Viability,Colon cancer organoid [3]; [4],9.59%
same,Cell Viability,Colon cancer organoid [3]; [5],58.9964%
CC(=O)N1CCC(c2ccc(C(=O)NC3=NCCN3)cc2C(F)(F)F)CC1 [BI 0054],Cell Viability,Colon cancer organoid [1]; [4],124.071%
same,Cell Viability,Colon cancer organoid [1]; [5],95.7607%
same,Cell Viability,Colon cancer organoid [2]; [4],121.714%
same,Cell Viability,Colon cancer organoid [2]; [5],122.015%
same,Cell Viability,Colon cancer organoid [3]; [4],111.388%
same,Cell Viability,Colon cancer organoid [3]; [5],98.4803%
CN(C)C(=O)Cn1cc(-c2nc(C3(c4ccc(-c5cnc(N)nc5)cc4)CC3)no2)cn1 [BI 0153],Cell Viability,Colon cancer organoid [1]; [4],137.539%
same,Cell Viability,Colon cancer organoid [1]; [5],73.6279%
same,Cell Viability,Colon cancer organoid [2]; [4],119.435%
same,Cell Viability,Colon cancer organoid [2]; [5],91.9766%
same,Cell Viability,Colon cancer organoid [3]; [4],127.983%
same,Cell Viability,Colon cancer organoid [3]; [5],104.715%
COc1ccc2c(O[C@@H]3C[C@H]4C(=O)N[C@]5(C(=O)O)CC5/C=C\CCCCC[C@H](NC(=O)OC5CCCC5)C(=O)N4C3)cc(-c3csc(NC(=O)C(C)C)n3)nc2c1C (some centres undefined) [BI 1230],Cell Viability,Colon cancer organoid [1]; [4],110.189%
same,Cell Viability,Colon cancer organoid [1]; [5],125.746%
same,Cell Viability,Colon cancer organoid [2]; [4],95.5192%
same,Cell Viability,Colon cancer organoid [2]; [5],162.279%
same,Cell Viability,Colon cancer organoid [3]; [4],146.11%
same,Cell Viability,Colon cancer organoid [3]; [5],113.81%
